Data taken from ChEMBL document CHEMBL5346907, “Discovery of a novel oral type Ⅰ CDK8 inhibitor against acute myeloid leukemia” (Eur J Med Chem, 2023).

Key:
Format in all cases: functional
A-375 = assay: Antiproliferative activity against human A-375 cells incubated for 48 hrs by CCK8 assay
A549 = assay: Antiproliferative activity against human A549 cells incubated for 48 hrs by CCK8 assay
MDA-MB-231 = assay: Antiproliferative activity against human MDA-MB-231 cells incubated for 48 hrs by CCK8 assay
MGC-803 = assay: Antiproliferative activity against human MGC-803 cells incubated for 48 hrs by CCK8 assay
MV4-11 = assay: Antiproliferative activity against human MV4-11 cells incubated for 48 hrs by CCK8 assay
GES1 = assay: Antiproliferative activity against human GES1 cells incubated for 48 hrs by CCK8 assay
MOLM-13 = assay: Antiproliferative activity against human MOLM-13 cells incubated for 48 hrs by CCK8 assay

GI50 (A-375): 5.9 µM
GI50 (A549): 12.1 µM
GI50 (MDA-MB-231): 9.6 µM
GI50 (MGC-803): 16.3 µM
GI50 (MV4-11): 0.07 µM
GI50 (MOLM-13): 0.02 µM
Compound: Cc1c(Br)c(Br)c2c3c1nc(N1CCNCC1)n3CCC2 [SEL-120 FREE BASE]
GI50 (GES1): 55.3 µM
